“Also recorded” adds a separate entry of the source.
Legend:
A549 cells [1] = test: Spray-mediated delivery of payloads to A549 cells (fluorescence microscopy, flow cytometry); assay type: cell-based, human
Description: Each well of the plate was treated as follows: cell culture medium was removed from the well using a micropipette. Optionally, the well was rinsed twice with 250 μL phosphate buffered saline (PBS) using a micropipette. 20 μL of Solution A containing molecules to be delivered was delivered to the cells using the atomizer. The plate was incubated at room temperature for a period of 30 seconds to 2 minutes depending on the size of the molecule to be delivered, following which 250 μL of Solution B was added to the well using a micropipette. The plate was then incubated at room temperature for 30 seconds, at which time Solution B was removed from the well using a micropipette. 500 μL of culture medium was added to the well using a micropipette. The cells were then returned to a humidified atmosphere with 5% CO^2 at 37° C.
Fluorescence Microscopy. Fluorescein isothiocyanate (FITC)- and DyLight Phosphoramidite (DY547)-labelled molecules were used in accordance with the manufacturer's instructions. Labelled molecules to be delivered to the cells were added to Solution A and delivered to cells as described above herein. Following delivery, the plate was placed onto the stage of a fluorescent microscope (Olympus CKX 41) and the cells were viewed using filters to visualize fluorescence. Photomicrographs were acquired.
Flow Cytometry. […] The cell suspension was loaded into a flow cytometer [Accuri Flow Cytometyer, BD Biosciences] and the fluorescence was analyzed according to manufacturer's instruction. […]

Jurkat cells = test: Spray delivery into Jurkat suspension cells; assay type: cell-based; details: spray after removal of supernatant
Description: In this example, the delivery method across cell types was evaluated. […] The cell suspension was placed into a porous cell culture plate insert and a brief gentle vacuum of approximately −0.5 to −0.68 bar was applied for 20-45 sec to remove supernatant before the cells were sprayed (FIG. 41A and FIG. 42).

A549 cells [2] = test: Micropipette-mediated delivery of payloads to A549 cells (uptake); assay type: cell-based, human; details: 24-well plates
Description: FIG. 19 is a graph illustrating Micropipette-mediated delivery of payloads in either 200 μl or 20 μl delivery solution to A549 cells in 24-well plates. Uptake efficiency was measured by flow cytometry (5% m bar) and toxicity was measured by lactate dehydrogenase (LDH) release compared to lysed cells positive control.
Cells were seeded into 24-well plates on Day 0 such that they were 80-90% confluent on Day 1 when delivery was carried out. […] Cells were incubated for 2 min at room temperature (RT) to facilitate uptake. To further facilitate uptake and prevent cell dehydration, 200 μl 0.5×-PBS was then added and cells were incubated for a further 30 sec. This solution was then removed and 400 μl culture medium was added. The cells were then analyzed by fluorescence microscopy.

cells = test: Delivery of molecules to cells, spray apparatus versus micropipette (Examples 2-12); assay type: cell-based
Description: Delivery of Molecules. An intranasal mucosal atomization device commercially available from LMA Teleflex of NC, USA under catalogue number MAD300 and including an atomizer emitter was set up as follows: the atomizer emitter was positioned 31 mm from the base of the 24-well plate and above the center point of each circular well of the plate. The atomizer emitter was adjusted to allow a pressure of 1.5 bar. A timer was utilized to dispense spray from the atomizer emitter for a period of 1 second. The atomizer emitter was primed by rinsing three times with Solution A containing molecules to be delivered.
Each well of the plate was treated as follows: cell culture medium was removed from the well using a micropipette. Optionally, the well was rinsed twice with 250 μL phosphate buffered saline (PBS) using a micropipette. 20 μL of Solution A containing molecules to be delivered was delivered to the cells using the atomizer. The plate was incubated at room temperature for a period of 30 seconds to 2 minutes depending on the size of the molecule to be delivered, following which 250 μL of Solution B was added to the well using a micropipette. The plate was then incubated at room temperature for 30 seconds, at which time Solution B was removed from the well using a micropipette. 500 μL of culture medium was added to the well using a micropipette. […]
Fluorescence Microscopy. […] Following delivery, the plate was placed onto the stage of a fluorescent microscope (Olympus CKX 41) and the cells were viewed using filters to visualize fluorescence. […]
Flow Cytometry. […] The cell suspension was loaded into a flow cytometer [Accuri Flow Cytometyer, BD Biosciences] and the fluorescence was analyzed according to manufacturer's instruction.
Cell Viability. Following delivery, cell viability was assessed using the CellTiter 96® AQueous One Solution Cell Proliferation Assay (MTS) (Promega) according to the manufacturer's instructions. […] 100 μL of solution was removed from the well and placed into a 96-well plate and absorbance was read at 450 nm using a GloMax 96 Microplate luminometer [Promega].

A549 cells [3] = test: Incubation of A549 cells in S Buffer (Medepalli conditions); assay type: cell-based, human; details: 5 min at 4° C.
Description: A vector-free delivery method was developed based on reversible permeabilisation that would facilitate delivery of payloads into cells in a manner that would retain cell viability and payload functionality. As other groups have done, the following hypothesis was utilized: firstly, permeabilisation could be induced by chemical modification of the cell membrane; secondly, delivery could be enhanced via osmotic pressure brought about by using a hypotonic delivery solution whereby influx of water into the permeabilised cells facilitated influx of a payload and thirdly, cell survival could be enhanced if the hypotonic delivery solution was also buffered and physiological. Based on initial observations, further hypotheses were developed and refined as described later here. For chemical permeabilisation, the most common permeabilising agents are detergents which interact with certain components in cell membranes to create holes (Hapala, I., Crit Rev. Biotech. 1997; 17(2): 105-22). […] (Medepalli K. et al., Nanotechnology 2013; 24(20)). In some examples, potassium acetate is replaced with ammonium acetate in the “S” buffer. They also stated that delivery could be enhanced by adding saponin to the solution. […] Organic solvents such as alcohols can permeabilise cells by dissolving lipid from the cell membrane. […]

CHO cells = test: Spray delivery of labelled proteins into CHO cells; assay type: cell-based, Chinese hamster; details: for delivery of labelled protein into cells: FITC or Alexa-488 label
Description: A notable application of delivery technology is the intracellular delivery of proteins. Proteins are a very diverse group in terms of their size, shape and chemistry and few methods are currently available for efficient delivery of these molecules. A broad range of proteins of increasing sizes from 18.3 kDa to 443 kDa were labeled with either FITC or Alexa-488 and their delivery by spraying was examined. […] A general trend towards declining delivery efficiencies with increasing size of protein (FIG. 44) was observed.

[4] = DAPI, phallotoxin and MitoTracker Red together

N=C(N)c1ccc(-c2cc3ccc(C(=N)N)cc3[nH]2)cc1 [DAPI, 4′,6-diamidino-2-phenylindole]
co-delivery into cells (A549 cells [1]; 10-kDa dextran-Alexa488 and DAPI together): successfully co-delivered | co-delivery into cells (A549 cells [1]; [4]): successfully co-delivered | delivery to suspension cells (Jurkat cells): successfully delivered

ClCc1ccc(C2=c3cc4c5c(c3Oc3c2cc2c6c3CCCN6CCC2)CCC[N+]=5CCC4)cc1.[Cl-] [MitoTracker Red]
co-delivery into cells (A549 cells [1]; [4]): successfully co-delivered | delivery to suspension cells (Jurkat cells): successfully delivered

CC[N+](C)(CC)CCC[n+]1c(-c2ccccc2)c2cc(N)ccc2c2ccc(N)cc21.[I-].[I-] [PI, propidium iodide]
uptake viewed by fluorescent microscopy (A549 cells [2]; 20 μL delivery solution): apparent at the edge of the well but not in the center; also recorded: apparent in some areas of the well but not in others | uptake viewed by fluorescent microscopy (A549 cells [2]; 200 μL delivery solution): most cells immediately stained positive | uptake viewed by fluorescent microscopy (A549 cells [2]; 200 μL delivery solution, listed as Propidium iodide): uptake was visible throughout the cell population | delivery rate (percent of cells showing successful delivery), spray compared to micropipette (cells; Example 3, 150 μM, 20 or 40% ethanol): increases the delivery rate | delivery in viable cells (cells; Example 3, micropipette, 40% (v/v) ethanol): no delivery of molecules was detected in viable cells | simultaneous delivery of two molecules into the cell (cells; Example 4, spray, 25% ethanol, same matrix): results in delivery of the molecule into the cell

dextran
uptake (A549 cells [3]): did not observe uptake

ovalbumin: protein labelled with FITC and delivered into CHO cells
delivery of labelled protein into cells (CHO cells): successfully delivered | detection of delivered protein with anti-ovalbumin antibody (CHO cells; immunofluorescence): detected by immunofluorescence

B1: catalase: protein labelled with FITC and delivered into CHO cells (protein, UniProt P00432 2-527, looked up)
Catalase: ADNRDPASDQMKHWKEQRAAQKPDVLTTGGGNPVGDKLNSLTVGPRGPLLVQDVVFTDEMAHFDRERIPERVVHAKGAGAFGYFEVTHDITRYSKAKVFEHIGKRTPIAVRFSTVAGESGSADTVRDPRGFAVKFYTEDGNWDLVGNNTPIFFIRDALLFPSFIHSQKRNPQTHLKDPDMVWDFWSLRPESLHQVSFLFSDRGIPDGHRHMNGYGSHTFKLVNANGEAVYCKFHYKTDQGIKNLSVEDAARLAHEDPDYGLRDLFNAIATGNYPSWTLYIQVMTFSEAEIFPFNPFDLTKVWPHGDYPLIPVGKLVLNRNPVNYFAEVEQLAFDPSNMPPGIEPSPDKMLQGRLFAYPDTHRHRLGPNYLQIPVNCPYRARVANYQRDGPMCMMDNQGGAPNYYPNSFSAPEHQPSALEHRTHFSGDVQRFNSANDDNVTQVRTFYLKVLNEEQRKRLCENIAGHLKDAQLFIQKKAVKNFSDVHPEYGSRIQALLDKYNEEKPKNAVHTYVQHGSHLSAREKANL
modifications: FITC label
notes: protein labelled with FITC and delivered into CHO cells
delivery of labelled protein into cells (CHO cells): successfully delivered
